Source: PubChem BioAssay (NCI)
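Exposure lasted 48 hours, with cells grown in 96-well plates and compounds tested at five concentrations. The concentration for 50% growth inhibition is given as GI50. TGI denotes the concentration required for complete inhibition of growth.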

Columns and labels:
Assay in all cases: inhibition of tumour cell growth, NCI panel, 48 h
[1] = system: COLO 205 colon
[2] = system: UO-31 renal
[3] = system: LOX IMVI melanoma
[4] = system: NCI/ADR-RES ovarian
[5] = system: HCC-2998 colon
[6] = system: OVCAR-4 ovarian
[7] = system: NCI-H23 lung
[8] = system: SF-539 CNS
[9] = system: NCI-H226 lung
[10] = system: OVCAR-8 ovarian

| Structure (SMILES) | TGI [1] [µM] | TGI [2] [µM] | TGI [3] [µM] | TGI [4] [µM] | TGI [5] [µM] | TGI [6] [µM] | TGI [7] [µM] | TGI [8] [µM] | TGI [9] [µM] | TGI [10] [µM] | GI50 [1] [µM] | GI50 [4] [µM] | GI50 [6] [µM] | GI50 [8] [µM] | GI50 [10] [µM] |
| --- | --- | --- | --- | --- | --- | --- | --- | --- | --- | --- | --- | --- | --- | --- | --- |
| Cc1cccc(Nc2cn(COCc3ccccc3)c(=O)[nH]c2=O)c1 | > 100 | > 100 | > 100 | 90 | > 100 | > 100 | > 100 | – | – | – | – | – | – | – | – |
| CC(=O)[O-].CC(=O)[O-].O=C(N/N=C/c1cc(Cl)cc(Cl)c1[OH2+])c1ccncc1.[Co+2] | > 100 | > 100 | > 100 | – | > 100 | – | > 100 | > 100 | > 100 | > 100 | – | – | – | – | – |
| CCOP(=O)(/C=C\n1cnc2c(=O)n(C(C)=O)c(N)nc21)OCC | > 100 | – | > 100 | > 100 | – | > 100 | > 100 | > 100 | > 100 | > 100 | – | – | – | – | – |
| CC(=O)c1ccc(Oc2ccc(/C(C)=N\N=C(N)N)cc2)cc1 | 3.26 | – | 13.1 | – | 20.8 | 23 | 12.8 | 3.48 | – | 12.7 | – | – | – | – | – |
| CC1(O)CC2C(CC1SCCO)C2(C)C (stereo not given) | > 100 | > 100 | – | – | > 100 | > 100 | > 100 | > 100 | – | > 100 | – | – | – | – | – |
| CCSC1=N/C(=C\c2ccccc2O)C(Nc2ccc(C)cc2)=N1 | > 100 | > 100 | > 100 | > 100 | – | – | > 100 | > 100 | > 100 | > 100 | – | – | – | – | – |
| O=C(O)CSc1cc(-c2ccccc2)nc2ccccc12 | – | > 100 | > 100 | > 100 | – | > 100 | > 100 | – | – | > 100 | – | – | – | – | – |
| CC(=O)O[C@H]1CC[C@]2(C)[C@H]3CC[C@@H]4[C@H]5[C@H](C(C)C)CC[C@]5(C(=O)OCC(CO)(CO)N=C(N)N)CC[C@@]4(C)[C@]3(C)CC[C@H]2C1(C)C | 3.55 | – | – | 5.17 | – | 3.32 | – | 3.34 | – | 5.45 | 1.88 | 2.23 | 1.68 | 1.83 | 2.32 |
| COC(=O)C1=Nc2c(C)nn(-c3ccccc3)c2N=C(c2ccc(C)cc2)C1 | > 10 | – | > 10 | > 10 | > 10 | > 10 | > 10 | > 10 | – | > 10 | – | – | – | – | – |
| O=C1c2cc3ccccc3cc2C2(c3ccc(Cl)cc3)N[C@H]3CCCC[C@@H]3N12 (stereo not given in full) | > 100 | 57.6 | 55.8 | 41.6 | – | 21.3 | 31.3 | 21.8 | – | 19.4 | – | – | – | – | – |
| COc1cccc2cc(C(N)=O)c(=N)oc12 | > 100 | – | > 100 | > 100 | > 100 | > 100 | > 100 | > 100 | > 100 | > 100 | – | – | – | – | – |
| C=C1c2c(cc3c(c2O)c(=O)c2ccccc2n3C)OC1(C)C | > 100 | > 100 | > 100 | – | – | – | 27.3 | > 100 | > 100 | > 100 | – | – | – | – | – |
| O=C(NO)c1coc2ccccc2c1=O | > 100 | > 100 | > 100 | – | > 100 | > 100 | > 100 | > 100 | – | > 100 | – | – | – | – | – |
| N#CCC(=O)Nn1c(CC#N)nnc1Cc1ccccc1 | – | > 100 | – | > 100 | > 100 | – | > 100 | > 100 | > 100 | > 100 | – | – | – | – | – |
| C=C(C=O)c1c2c(nc3ccccc13)C(=O)c1ccccc1C2=O | – | > 29 | 45 | – | > 100 | – | 2.85 | 0.605 | 1.97 | 2.3 | – | – | – | – | – |
| Cc1ccc2c(c1)NC(=O)CCSSCCC(=O)N2 | > 100 | > 100 | > 100 | > 100 | – | > 100 | > 100 | > 100 | > 100 | > 100 | – | – | – | – | – |
| CC[N+]1(C)CCC(O)(c2ccc(Cl)cc2)C(C(=O)c2ccc(Cl)cc2)C1 (stereo not given) | 23.8 | 34.5 | 25.6 | 57.1 | 36.3 | 78.4 | 38.5 | – | 48.3 | > 100 | – | – | – | – | – |
| CC(=O)Nc1ncc(Sc2ccccc2C(=O)O)s1 | > 100 | > 100 | > 100 | > 100 | – | – | > 100 | > 100 | > 100 | > 100 | – | – | – | – | – |
| COc1cc(/C=C/C(C)=O)ccc1OP(=O)(O)O | > 100 | > 100 | > 100 | – | > 100 | > 100 | > 100 | > 100 | > 100 | > 100 | – | – | – | – | – |
| O=C(O)CSCC(=O)Nc1ccc2cccc3c2c1CC3 | > 100 | > 100 | > 100 | > 100 | > 100 | > 100 | > 100 | > 100 | – | > 100 | – | – | – | – | – |
| CC(C)(C)[Si](C)(C)OCCCC#CCO | > 100 | > 100 | > 100 | – | > 100 | > 100 | > 100 | > 100 | – | > 100 | – | – | – | – | – |
| CC1CCCC2=C1C(c1ccc(Cl)cc1)n1c(s/c(=C\c3ccc(Cl)cc3)c1=O)=N2 (stereo not given) | > 100 | > 100 | > 100 | – | – | – | – | – | – | > 100 | – | – | – | – | – |
| NNC(=O)c1c(Cl)c(Cl)c(Cl)c(Cl)c1-c1nc2ccccc2[nH]1 | 62 | 39.5 | 30.3 | 59.8 | 22.5 | – | 59.5 | > 100 | 65.4 | > 100 | – | – | – | – | – |
| CCOP(=O)(Nc1ccc(-c2ccccc2)cc1)OCC | > 100 | > 100 | – | > 100 | > 100 | > 100 | > 100 | – | – | > 100 | – | – | – | – | – |
| Cc1csc2nc(-c3ccc([N+](=O)[O-])cc3)c(/C=N/N=C(N)N)n12 | 2.96 | 2.88 | 3.63 | > 50.8 | 1.59 | 3.04 | 3.2 | 3.08 | – | 2.68 | – | – | – | – | – |
| Cc1nc2c(o1)C(=O)c1ccccc1/C2=N/c1ccccn1 | > 100 | 39.3 | 39.9 | 56.9 | > 100 | 28.2 | 23.6 | 33.2 | – | 31.1 | – | – | – | – | – |
